Structures can show the parent of a compound that is named as a salt.
Experiments:
[1] = test system: Human Pancreatic Carcinoma Capan-1; assay: Anti-tumor efficacy of gemcitabine hydrochloride and Compound X, s.c. Capan-1 xenograft; format: in vivo, Nu/Nu mice; conditions: for % Tumor Growth Inhibition: vs Gelucire vehicle day 13
Description: (10^7 cells/mouse, 200 μl) into the right flank of female Nu/Nu mice (˜20 grams; […] An overview of each of the groups and the treatment is set forth below in the table. [table] Animal body weight and tumor measurements were obtained at regular intervals. […] Mean tumor volume in Gelucire vehicle group on day 13 was used for % growth inhibition calculation.

[2] = test system: Human Non Small Cell Lung Carcinoma EBC-1; assay: Anti-tumor efficacy of carboplatin with Compound X, s.c. EBC-1 xenograft; format: in vivo; conditions: vs saline vehicle day 14
Description: (§1) Exponentially grown human non-small cell lung carcinoma EBC-1 cells [RPMI 1640 with 10% FBS, and pen/strep (Gibco)] were harvested and inoculated subcutaneously (10^7 cells/mouse, 200 μl) into the right flank of female Nu/Nu mice (˜20 grams; Charles River Laboratories, MA). 7 days after inoculation, tumor-bearing animals of approximately 175 mm^3 in size were separated into groups of 8 animals each.
Carboplatin (Bristol Oncology Products, Princeton, N.J.) was formulated in 0.9% saline and dosed ip., q3d×4 at 25 and 50 mg/kg. One group received 0.9% saline only (200 μl/animal, ip, q3d×4) which served as the control for the experiment. […] One group received 5% Gelucire only, (200 μl/animal, po, qd×14) which served as the vehicle control for the experiment.
(§2) Animal body weight and tumor measurements were obtained at regular intervals. Tumor volume (mm^3) was calculated using the formula length (mm)×width (mm)×width (mm)×0.5.
Mean tumor volume in saline vehicle group on day 14 was used for the % growth inhibition calculation.

[3] = test system: Human Colon Carcinoma Colo-205; assay: Anti-tumor efficacy of CPT-11 with Compound X, s.c. Colo-205 xenograft; format: in vivo, Nu/Nu mice; conditions: vs Gelucire vehicle day 12
Description: as §1, with “colon” for “non-small cell lung”, “Colo-205” for “EBC-1”, “(5×10^6” for “(10^7”, “9” for “7”, “150” for “175”, “7” for “8”
(§3) CPT-11 (Camptosar®, Pharmacia & Upjohn, Kalamazoo, Mich.) was formulated in 0.9% saline and dosed iv×1 at 25 and 75 mg/kg. One group received 0.9% saline only (200 μl/animal, iv×1) which served as the control for the experiment. The mesylate salt of 3-(4-Bromo-2,6-difluoro-benzyloxy)-5-[3-(4-pyrrolidin-1-yl-butyl)-ureido}-isothiazole-4-carboxylic acid amide was formulated in 5% Gelucire (Gattefosse Inc., France) and dosed po, qd×12 at 25, 50 and 100 mg/kg. One group received 5% Gelucire only, (200 μl/animal, po, qd×12) which served as the vehicle control for the experiment.
as §2
(§4) Mean tumor volume in Gelucire vehicle group on day 12 was used for the % growth inhibition calculation.

[4] = test system: Human Colon Carcinoma Colo-205; assay: Anti-tumor efficacy of 5-FU with Compound X, s.c. Colo-205 xenograft; format: in vivo; conditions: vs Gelucire vehicle day 12
Description: as §1, with “colon” for “non-small cell lung”, “Colo-205” for “EBC-1”, “(5×10^6” for “(10^7”, “9” for “7”, “150” for “175”, “7” for “8”
as §3, with “5-FU (ICN Pharmaceuticals, Inc., Costa Mesa, Calif.)” for “CPT-11 (Camptosar®, Pharmacia & Upjohn, Kalamazoo, Mich.)”, “100” for “75”
as §2, §4

[5] = test system: Human Non Small Cell Lung Carcinoma EBC-1; assay: Anti-tumor efficacy of paclitaxel (Taxol) with Compound X, s.c. EBC-1 xenograft; format: in vivo, Nu/Nu mice; conditions: vs Gelucire vehicle day 15
Description: as §1, with “[(RPMI” for “[RPMI”, “s.c.” for “subcutaneously”, “MA.).” for “MA).”, “150” for “175”, “5” for “8”
Compound X (the mesylate salt of 3-(4-Bromo-2,6-difluoro-benzyloxy)-5-[3-(4-pyrrolidin-1-yl-butyl)-ureido}-isothiazole-4-carboxylic acid amide) was formulated in 5% Gelucire (Gattefosse Inc. France) and dosed po., qd×15 at 12.5 and 100 mg/kg. Taxol® (MeadJohnson Oncology Products, Princeton, N.J.) was formulated in 0.9% sterile saline and dosed ip., qd×5 at 20 mg/kg. For control purposes one group received 5% Gelucire only (200 μl/animal, po, qd×15).
as §2
Mean tumor volume in Gelucire vehicle group on day 15 was used for the % growth inhibition calculation.

[6] = test system: Human Breast Carcinoma MDA-MB-231; assay: Anti-tumor efficacy of doxorubicin with Compound X, s.c. MDA-MB-231 xenograft; format: in vivo, Nu/Nu mice; conditions: vs Gelucire vehicle day 24
Description: Exponentially grown human breast carcinoma MDA-MB-231 cells [DMEM with 10% FBS, and pen/strep (Gibco)] were harvested and inoculated subcutaneously (3-5×10^6 cells/mouse, 200 μl) into the right flank of female Nu/Nu mice (˜20 grams; Charles River Laboratories, MA). 36 days after inoculation, tumor-bearing animals of approximately 75 mm^3 in size were separated into control (n=19) or experimental groups of animals (n=7 each).
[…] The mesylate salt of 3-(4-Bromo-2,6-difluoro-benzyloxy)-5-[3-(4-pyrrolidin-1-yl-butyl)-ureido}-isothiazole-4-carboxylic acid amide was formulated in 5% Gelucire (Gattefosse Inc., France) and dosed po, qd×24 at 12.5, 25, 50 and 100 mg/kg. One group received 5% Gelucire only, (200 μl/animal, po, qd×24) which served as the vehicle control for the experiment.
as §2
Mean tumor volume in Gelucire vehicle group on day 24 was used for the % growth inhibition calculation.

[7] = Compound X 25 mg/kg, po, qd × 12
[8] = Compound X 50 mg/kg, po, qd × 12
[9] = Compound X 100 mg/kg, po, qd × 12

## Nc1ccn([C@@H]2O[C@H](CO)[C@@H](O)C2(F)F)c(=O)n1 [Gemcitabine HCl, Gemcitabine hydrochloride]
[1]; Group 4: Gemcitabine HCl 1 mg/kg, ip, q3d × 4
  % Tumor Growth Inhibition: 0%
[1]; Group 5: Gemcitabine HCl 5 mg/kg, ip, q3d × 4
  % Tumor Growth Inhibition: 26%
[1]; Group 6: Gemcitabine HCl 80 mg/kg, ip, q3d × 4, day 1 volume of group = 100%
  mean tumor regression: 66% regression*
[1]; Group 6: Gemcitabine HCl 80 mg/kg, ip, q3d × 4
  % Tumor Growth Inhibition: 83%

## N.N.O=C([O-])C1(C(=O)[O-])CCC1.[Pt+2] [Carboplatin, cis-diammine-1,1-cyclobutanedicarboxylato-platinum II]
[2]; Carboplatin 25 mg/kg, ip, q3d × 4
  % Tumor Growth Inhibition: 0%
[2]; Carboplatin 50 mg/kg, ip, q3d × 4
  % Tumor Growth Inhibition: 31%

## CCc1c2c(nc3ccc(OC(=O)N4CCC(N5CCCCC5)CC4)cc13)-c1cc3c(c(=O)n1C2)COC(=O)[C@]3(O)CC [CPT-11, irinotecan HCl, reference compound]
[3]; CPT-11 25 mg/kg, iv × 1, growth instead of inhibition
  % tumor growth: (7% Tumor Growth)
[3]; CPT-11 75 mg/kg, iv × 1
  % Tumor Growth Inhibition: 5%

## O=c1[nH]cc(F)c(=O)[nH]1 [Compound 5-FU, 5-fluorouracil, reference compound]
[4]; 5-FU 25 mg/kg, iv × 1
  % Tumor Growth Inhibition: 24%
[4]; 5-FU 100 mg/kg, iv × 1
  % Tumor Growth Inhibition: 59%

## CC(=O)O[C@H]1C(=O)[C@@]2(C)[C@H]([C@H](OC(=O)c3ccccc3)[C@]3(O)C[C@H](OC(=O)[C@H](O)[C@@H](NC(=O)c4ccccc4)c4ccccc4)C(C)=C1C3(C)C)[C@]1(OC(C)=O)CO[C@@H]1C[C@@H]2O [Taxol ®, Paclitaxel, reference compound]
[5]; Taxol 20 mg/kg, ip, qd × 5
  % Tumor Growth Inhibition: 75%

## COc1cccc2c1C(=O)c1c(O)c3c(c(O)c1C2=O)C[C@@](O)(C(=O)CO)C[C@@H]3O[C@H]1C[C@H](N)[C@H](O)[C@H](C)O1 [Doxorubicin, reference compound]
[6]; Doxorubicin 2.5 mg/kg, ip × 1
  % Tumor Growth Inhibition: 7%
[6]; Doxorubicin 10 mg/kg, ip × 1
  % Tumor Growth Inhibition: 48%

## NC(=O)c1c(OCc2c(F)cc(Br)cc2F)nsc1NC(=O)NCCCCN1CCCC1 [Compound X, 3-(4-Bromo-2,6-difluoro-benzyloxy)-5-[3-(4-pyrrolidin-1-yl-butyl)-ureido}-isothiazole-4-carboxylic acid amide]
[1]; Group 2: Compound X 25 mg/kg, po, qd × 13
  % Tumor Growth Inhibition: 16%
[1]; Group 3: Compound X 100 mg/kg, po, qd × 13
  % Tumor Growth Inhibition: 46%
[5]; Compound X 12.5 mg/kg, po, qd × 15
  % Tumor Growth Inhibition: 34%
[5]; Compound X 100 mg/kg, po, qd × 15
  % Tumor Growth Inhibition: 72%
[2]; Compound X 100 mg/kg, po, qd × 4
  % Tumor Growth Inhibition: 67%
[4]; [7]
  % Tumor Growth Inhibition: 21%
[4]; [8]
  % Tumor Growth Inhibition: 47%
[4]; [9]
  % Tumor Growth Inhibition: 64%
[3]; [7]
  % Tumor Growth Inhibition: 9%
[3]; [8]
  % Tumor Growth Inhibition: 28%
[3]; [9]
  % Tumor Growth Inhibition: 66%
[6]; Compound X 12.5 mg/kg, po, qd × 24, growth instead of inhibition
  % tumor growth: (10% tumor growth)
[6]; Compound X 25 mg/kg, po, qd × 24
  % Tumor Growth Inhibition: 24%
[6]; Compound X 50 mg/kg, po, qd × 24
  % Tumor Growth Inhibition: 46%
[6]; Compound X 100 mg/kg, po, qd × 24
  % Tumor Growth Inhibition: 49%

Source: patent US20070197517A1, “Combination therapy for hyperproliferative disease” (Pfizer Inc., priority 2002, published 2007)
